Laboratory results published in patent US6426355B1, “Heterocyclic carboxamide-containing thiourea inhibitors of herpes viruses containing phenylenediamine group” (American Home Products, priority 1998, dated 2002).
Converted amounts (≈) assume the structure as drawn.

What was measured:
[1] = tested on: HCMV recombinant mutant virus (RV145); assay: HCMV microtiter plate assay (beta-glucuronidase reporter); format: cell-based, Human Cytomegalovirus; details: for IC50: Human betaherpesvirus 5, Fibroblast, read-out: IC50 (ug/ml) HCMV; for IC50 (ug/ml) HCMV: HCMV in human foreskin fibroblasts
Summary of the method: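 Human foreskin fibroblasts were infected with RV145 in the presence of inhibitor. β-glucuronidase under a viral promoter served as the replication marker. At 96 h post-infection, lysates in pH 7.0 phosphate with Triton X-100/sarkosyl were assayed colorimetrically or fluorometrically, and IC50 was estimated from varying inhibitor amounts.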

HSV-1 = assay: HSV Antiviral (ELISA) assay; format: cell-based; details: for IC50: Human alphaherpesvirus 1, HSV-1 in Vero cells, read-out: IC50 (ug/ml) HSV; for IC50 (ug/ml) HSV: HSV-1 in Vero cells
Method: Vero cells (ATCC #CCL-81) are plated on 96-well tissue culture plates at 3.5×10^4 cells per 100 μl tissue culture DMEM (Dulbecco's modified Eagle media) supplemented with 2% fetal bovine serum (FBS) in each well. After overnight incubation @ 37° C. (in 5% CO2) and 30 minutes prior to infection with HSV-1 (multiplicity of infection equal to 0.006), cells are either untreated, or treated with test compound (multiple concentrations) or reference standard drug control. After approximately 24 hours post-infection incubation @ 37° C. (in 5% CO2), cells are fixed for ELISA assay. The primary antibody is murine anti-HSV glycoprotein D monoclonal primary antibody and the secondary antibody is goat anti-mouse IgG linked to β-galactosidase. Thus the extent of viral replication is determined by assessing β-galactosidase activity by quantifying the generation of the 4-methyl umbelliferone fluorescent cleavage product after addition of the methyl umbelliferyl-β-D-galactoside (Sigma #M1633) substrate on a microfluorimeter (365 nm for excitation and 450 nm for emission). Antiviral activity (IC50) of the test compound is determined by comparing the flourescence obtained in absence of compound to that obtained in the presence of compound.

VZV strain Ellen = assay: VZV Antiviral (ELISA) assay; format: cell-based; details: for IC50: Human alphaherpesvirus 3, VZV strain Ellen in HFF cells, read-out: IC50 (ug/ml) VZV; for inhibition at 10 µg/mL: Human alphaherpesvirus 3, read-out: % inhibition 10 ug/ml VZV, at 10 ug/ml, VZV strain Ellen in HFF cells; for IC50 (ug/ml) VZV / % inhibition 10 ug/ml VZV: VZV strain Ellen in HFF cells; for % inhibition 10 ug/ml VZV: at 10 ug/ml
Method: For the generation of stock VZV to be used in the assay, VZV strain Ellen (ATCC #VR-1367) is used to infect human foreskin fibroblast (HFF) cells at low multiplicity (less than 0.1) and incubated overnight at 37° C. in 5% CO2. After the overnight incubation, the mixture of uninfected and VZV-infected HFF infected cells are then harvested and added to each well of 96-well plates (3.5×10^4 cells in 100 μl DMEM supplemented with 2% FBS) which contain test compound or the reference standard drug control (in 100 μl DMEM supplemented with 2% FBS per well). These cells are incubated for three days at 37° C. in 5% CO2, then fixed for ELISA assay. The primary antibody is murine anti-VZV glycoprotein II monoclonal antibody (Applied Biosystems, Inc. #13-145-100) and the secondary antibody is goat anti-mouse IgG linked to β-galactosidase. Thus the extent of viral replication is determined by assessing β-galactosidase activity by quantifying the generation of the 4-methyl umbelliferone fluorescent cleavage product after addition of the methyl umbelliferyl-β-D-galactoside (Sigma #M1633) substrate on a microfluorimeter (365 nm for excitation and 450 nm for emission). Antiviral activity (IC50) of the test compound is determined by comparing the flourescence obtained in absence of compound to that obtained in the presence of compound.

SMILES | IC50 (ug/ml) HCMV [1] [µg/mL] | IC50 (ug/ml) HSV (HSV-1) [µg/mL] | IC50 (ug/ml) VZV (VZV strain Ellen) [µg/mL] | also measured
O=C(Nc1ccc(NC(=S)Nc2ccc(Br)c(Cl)c2)cc1)c1csnn1 [Example 970, [1,2,3]Thiadiazole-4-carboxylic acid {4-[3-(4-bromo-3-chloro-phenyl)-thioureido]-phenyl}-amide] |  |  |  | IC50 [1]: 0.06 µg/mL (≈ 0.128 µM); IC50 (HSV-1): > 10 µg/mL; IC50 (VZV strain Ellen): > 10 µg/mL; inhibition at 10 µg/mL (VZV strain Ellen): 16%
O=C(Nc1ccc(NC(=S)Nc2ccc(I)c(Cl)c2)cc1)c1csnn1 [Example 971, [1,2,3]Thiadiazole-4-carboxylic acid {4-[3-(3-chloro-4-iodo-phenyl)-thioureido]-phenyl} -amide] |  |  |  | IC50 [1]: 0.013 µg/mL (≈ 0.0252 µM); IC50 (HSV-1): > 10 µg/mL; IC50 (VZV strain Ellen): > 10 µg/mL; inhibition at 10 µg/mL (VZV strain Ellen): 9%
COc1cccc(CCNC(=S)Nc2ccc(NC(=O)c3csnn3)cc2)c1 [Example 637] | 0.014 (≈ 0.0339 µM) | >10 | >10 | 
COc1ccc(CCNC(=S)Nc2ccc(NC(=O)c3csnn3)cc2)cc1OC [Example 639] | 0.07 (≈ 0.158 µM) | >10 | >10 | 
COc1cc(OC)c(NC(=S)Nc2ccc(NC(=O)c3ccc(Cl)o3)cc2)cc1Cl [Example 163] | 7 (≈ 15 µM) | 3 (≈ 6.43 µM) | >10 | % inhibition 10 ug/ml VZV (VZV strain Ellen): 30%
C[C@H](NC(=S)Nc1ccc(NC(=O)c2cscn2)nc1)c1cc(C(F)(F)F)cc(C(F)(F)F)c1 [Example 91] | 0.018 (≈ 0.0346 µM) | >10 | >10 | % inhibition 10 ug/ml VZV (VZV strain Ellen): 6%
CC(NC(=S)Nc1ccc(NC(=O)c2ccncc2)cc1)c1ccc(F)cc1 (centres unmarked) [Example 759] | >10 | >10 | 2 (≈ 5.07 µM) | 
O=C(Nc1ccc(NC(=S)Nc2cccc(C(F)(F)F)c2)cc1)c1csnn1 [Example 457] | 0.019 (≈ 0.0449 µM) | >10 | >10 | % inhibition 10 ug/ml VZV (VZV strain Ellen): 26%
COc1cc(OC)c(NC(=S)Nc2ccc(NC(=O)c3ccoc3)cc2)cc1Cl [Example 166] | >10 | 9 (≈ 20.8 µM) | >10 | % inhibition 10 ug/ml VZV (VZV strain Ellen): 30%
CC(C)Cc1cc(NC(=S)Nc2ccc(NC(=O)c3csnn3)cc2)cc(C(F)(F)F)c1 [Example 557] | 0.006 (≈ 0.0125 µM) | >10 | >10 | 
O=C(Nc1ccc(NC(=S)Nc2ccccc2Cl)cc1)c1csnn1 [Example 1006, [1,2,3]Thiadiazole-4-carboxylic acid {4-[3-(2-chloro-phenyl)-thioureido]-phenyl}-amide] |  |  |  | IC50 [1]: 0.2 µg/mL (≈ 0.513 µM); IC50 (HSV-1): > 10 µg/mL; IC50 (VZV strain Ellen): > 10 µg/mL; inhibition at 10 µg/mL (VZV strain Ellen): 13%
COc1cc(OC)c(NC(=S)Nc2ccc(NC(=O)c3ccco3)cc2)cc1Br [Example 879, Furan-2-carboxylic acid {4-[3-(5-bromo-2,4-dimethoxy-phenyl)-thioureido]-phenyl}-amide] |  |  |  | IC50 [1]: 0.3 µg/mL (≈ 0.63 µM); IC50 (HSV-1): 4 µg/mL (≈ 8.4 µM); IC50 (VZV strain Ellen): 10 µg/mL (≈ 21 µM); inhibition at 10 µg/mL (VZV strain Ellen): 65%
COc1c(Cl)cc(NC(=S)Nc2ccc(NC(=O)c3ccco3)cc2)cc1Cl [Example 875, Furan-2-carboxylic acid {4-[3-(3,5-dichloro-4-methoxy-phenyl)-thioureido]-phenyl}-amide] |  |  |  | IC50 [1]: > 2.2 µg/mL; IC50 (HSV-1): > 50 µg/mL; IC50 (VZV strain Ellen): > 10 µg/mL; inhibition at 10 µg/mL (VZV strain Ellen): 18%
CC(C)c1cccc(NC(=S)Nc2ccc(NC(=O)c3ccco3)cc2)c1 [Example 451] | 0.15 (≈ 0.395 µM) | 8 (≈ 21.1 µM) | >10 | 
O=C(Nc1ccc(NC(=S)Nc2ccc3[nH]ncc3c2)cc1)c1ccco1 [Example 481] | 0.5 (≈ 1.32 µM) | >10 | >10 | % inhibition 10 ug/ml VZV (VZV strain Ellen): 32%
Nc1ccc(CCNC(=S)Nc2ccc(NC(=O)c3ccco3)cc2)cc1 [Example 603] | >0.5 | >10 | >10 | 
COc1cc(OC)c(NC(=S)Nc2ccc(NC(=O)c3ccno3)cc2)cc1Cl [Example 470] | 0.7 (≈ 1.62 µM) | 0.6 (≈ 1.39 µM) | >10 | % inhibition 10 ug/ml VZV (VZV strain Ellen): 17%
O=C(Nc1ccc(NC(=S)NCc2ccc(F)c(F)c2)cc1)c1csnn1 [Example 676] | 0.013 (≈ 0.0321 µM) | >10 |  | 
O=C(Nc1ccc(NC(=S)Nc2cc(Cl)cc(Cl)c2)cc1)c1cscn1 [Example 700] | 0.004 (≈ 0.00945 µM) | >10 |  | 

SMILES | IC50 (ug/ml) HCMV [1] [µg/mL] | IC50 (ug/ml) HSV (HSV-1) [µg/mL] | IC50 (ug/ml) VZV (VZV strain Ellen) [µg/mL] | also measured
O=C(Nc1ccc(NC(=S)NCCc2ccc(C(F)(F)F)cc2)cc1)c1csnn1 [Example 717] | 0.003 (≈ 0.00664 µM) | >10 |  | 
O=C(Nc1ccc(NC(=S)NCCOc2cc(C(F)(F)F)ccc2F)cc1)c1csnn1 [Example 737] | 0.005 (≈ 0.0103 µM) | >10 |  | 
O=C(Nc1ccc(NC(=S)Nc2ccccc2F)cc1)c1csnn1 [Example 748] | 0.28 (≈ 0.75 µM) | >10 |  | 
O=C(Nc1ccc(NC(=S)NCCc2ccc(F)cc2C(F)(F)F)cc1)c1csnn1 [Example 769] | 0.04 (≈ 0.0852 µM) | >10 |  | 
O=C(Nc1ccc(NC(=S)NCc2ccc(F)c(Cl)c2)cc1)c1csnn1 [Example 689] | 0.007 (≈ 0.0166 µM) | 7 (≈ 16.6 µM) |  | 
O=C(Nc1ccc(NC(=S)NCCc2ccc(Cl)c(Cl)c2)cc1)c1ccco1 [Example 718] | 0.02 (≈ 0.046 µM) | 6 (≈ 13.8 µM) |  | 
O=C(Nc1ccc(NC(=S)NCc2cc(C(F)(F)F)ccc2F)cc1)c1csnn1 [Example 671] | 0.005 (≈ 0.011 µM) | >10 |  | 
O=C(Nc1ccc(NC(=S)NCCc2ccccc2Cl)cc1)c1csnn1 [Example 683] | 0.02 (≈ 0.0479 µM) | 10 (≈ 23.9 µM) |  | 
O=C(Nc1ccc(NC(=S)Nc2ccc(Cl)c(C(F)(F)F)c2)cc1)c1cocn1 [Example 714] | 0.02 (≈ 0.0454 µM) | >10 |  | 
O=C(Nc1ccc(NC(=S)NCCOc2cc(Cl)cc(Cl)c2)cc1)c1ccco1 [Example 665] | 0.02 (≈ 0.0444 µM) | 5 (≈ 11.1 µM) |  | 
O=C(Nc1ccc(NC(=S)NCCSc2cc(C(F)(F)F)ccc2F)cc1)c1csnn1 [Example 711] | 0.004 (≈ 0.00798 µM) | >10 |  | 
O=C(Nc1ccc(NC(=S)NCCNc2ccccc2)cc1)c1csnn1 [Example 706] | 0.04 (≈ 0.1 µM) | >10 |  | 
O=C(Nc1ccc(NC(=S)NCCc2cccc(Br)c2)cc1)c1csnn1 [Example 770] | 0.006 (≈ 0.013 µM) | >10 |  | 
COc1ccc(CCNC(=S)Nc2ccc(NC(=O)c3csnn3)cc2)cc1 [Example 652] | 0.03 (≈ 0.0725 µM) | >10 |  | 
O=C(Nc1ccc(NC(=S)Nc2cc(Cl)cc(Cl)c2)cc1)c1cocn1 [Example 702] | 0.01 (≈ 0.0246 µM) | 4 (≈ 9.82 µM) |  | 
COc1ccccc1CCNC(=S)Nc1ccc(NC(=O)c2csnn2)cc1 [Example 651] | 0.03 (≈ 0.0725 µM) | >10 |  | 
O=C(Nc1ccc(NC(=S)NCCSc2cccc(Br)c2)cc1)c1csnn1 [Example 678] | 0.005 (≈ 0.0101 µM) | >10 |  | 
O=C(Nc1ccc(NC(=S)NCCc2ccccc2F)cc1)c1ccco1 [Example 738] | 0.11 (≈ 0.287 µM) | >10 |  | 
CC(Cc1ccccc1)NC(=S)Nc1ccc(NC(=O)c2csnn2)cc1 (centres unmarked) [Example 723] | 0.03 (≈ 0.0755 µM) | >10 |  | 
